Measurements taken from PMC11059360 (Nature Communications, 2024).

Molecular target: T1, SLC26A2 (Homo sapiens, UniProt P50443)
T1 construct: full length, N-terminal His-tag and thrombin site (tag digested with thrombin for cryo-EM); Expi293F, BacMam; LMNG; homodimer; model covers residues 52-724
T1 sequence (P50443 1-739): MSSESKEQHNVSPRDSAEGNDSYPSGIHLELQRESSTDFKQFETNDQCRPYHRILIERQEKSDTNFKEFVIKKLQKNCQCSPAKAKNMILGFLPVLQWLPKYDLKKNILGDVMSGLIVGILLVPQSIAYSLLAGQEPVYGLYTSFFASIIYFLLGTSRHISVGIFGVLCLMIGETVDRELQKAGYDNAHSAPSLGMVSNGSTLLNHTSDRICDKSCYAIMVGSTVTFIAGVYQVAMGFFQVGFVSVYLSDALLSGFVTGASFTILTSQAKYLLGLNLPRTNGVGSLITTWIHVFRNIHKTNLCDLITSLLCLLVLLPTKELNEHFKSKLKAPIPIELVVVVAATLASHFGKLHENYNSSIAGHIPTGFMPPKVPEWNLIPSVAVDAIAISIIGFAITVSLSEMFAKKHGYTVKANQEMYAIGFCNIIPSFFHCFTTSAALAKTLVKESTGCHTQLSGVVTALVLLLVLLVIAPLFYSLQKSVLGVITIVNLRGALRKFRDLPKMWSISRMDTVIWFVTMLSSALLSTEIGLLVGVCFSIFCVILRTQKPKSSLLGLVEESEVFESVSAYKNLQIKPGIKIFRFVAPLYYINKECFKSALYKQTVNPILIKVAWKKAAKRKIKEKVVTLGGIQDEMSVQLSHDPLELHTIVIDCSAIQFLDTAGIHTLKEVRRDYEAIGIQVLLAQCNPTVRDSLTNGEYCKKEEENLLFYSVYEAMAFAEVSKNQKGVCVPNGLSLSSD
Assay: cryo-EM structure of the complex
Assay type: binding
Details: pH 7.5, LMNG

cryo-EM structure of the complex (50 mM K2C2O4, no NaCl, weak density outside the canonical pocket, between TM5 and TM12)	SMILES	cryo-EM structure of the complex (150 mM NaCl, canonical TM3/TM10 pocket, inward-facing)
weak densities outside the pocket	O=C(O)C(=O)O [C2O4^2−]	–
–	Cl [Cl^−]	we identified a distinct density corresponding to the Cl^- ion in this cleft
